In US11964953B2, “Substituted aminothiazoles as DGKzeta inhibitors for immune activation” (Bayer Aktiengesellschaft, priority 2020, dated 2024):

Biological target: human DGKζ (Homo sapiens (Human), UniProt Q13574)
Assay: Human DGKζ kinase activity inhibition assay (ADP-Glo)
Type: biochemical
Details: in vitro human DGKζ kinase activity inhibition assay; read-out: IC50
Description: Human DGKζ Kinase Activity Inhibition Assay. Human diacylglycerol kinase zeta (DGKζ) inhibitory activity of compounds of the present invention was quantified employing the human DGKζ kinase activity assay as described in the following paragraphs. In essence, the enzyme activity was measured by quantification of the adenosine-di-phosphate (ADP) generated as a co-product of the enzyme reaction via the “ADP-Glo™ Kinase Assay” kit from the company Promega. This detection system works as follows: In a first step the adenosine-tri-phosphate (ATP) not consumed in the kinase reaction is quantitatively converted to cyclic adenosine-mono-phosphate (cAMP) employing an adenylate cyclase (“ADP-Glo-reagent”), then the adenylate cyclase is stopped and the ADP generated in the kinase reaction is converted to ATP, which subsequently generates in a luciferase-based reaction a glow-luminescence signal (“Kinase Detection Reagent”). C-terminally FLAG-tagged, recombinant full-length human DGKζ (in house expressed in baculovirus infected insect cells, purified using anti-Flag pulldown and size exclusion chromatography) was used as enzyme. As an alternative, commercially available enzyme by Carnabio can be used. […] Subsequently, 22.55 volumes of a 510 mM solution of octyl-β-D-glucopyranoside (Sigma-Aldrich, Cat. #O8001-10G) in 50 mM MOPS buffer (pH 7.4) were added, and the mixture was sonicated in an ultrasonic bath for 20 s. […] Viewlux™ from Perkin-Elmer). The amount of emitted light was taken as a measure for the amount of ADP generated and thereby for the activity of the DGKζ.

Chain of human DGKζ (Q13574 other isoform, or with tags, fused parts or gaps): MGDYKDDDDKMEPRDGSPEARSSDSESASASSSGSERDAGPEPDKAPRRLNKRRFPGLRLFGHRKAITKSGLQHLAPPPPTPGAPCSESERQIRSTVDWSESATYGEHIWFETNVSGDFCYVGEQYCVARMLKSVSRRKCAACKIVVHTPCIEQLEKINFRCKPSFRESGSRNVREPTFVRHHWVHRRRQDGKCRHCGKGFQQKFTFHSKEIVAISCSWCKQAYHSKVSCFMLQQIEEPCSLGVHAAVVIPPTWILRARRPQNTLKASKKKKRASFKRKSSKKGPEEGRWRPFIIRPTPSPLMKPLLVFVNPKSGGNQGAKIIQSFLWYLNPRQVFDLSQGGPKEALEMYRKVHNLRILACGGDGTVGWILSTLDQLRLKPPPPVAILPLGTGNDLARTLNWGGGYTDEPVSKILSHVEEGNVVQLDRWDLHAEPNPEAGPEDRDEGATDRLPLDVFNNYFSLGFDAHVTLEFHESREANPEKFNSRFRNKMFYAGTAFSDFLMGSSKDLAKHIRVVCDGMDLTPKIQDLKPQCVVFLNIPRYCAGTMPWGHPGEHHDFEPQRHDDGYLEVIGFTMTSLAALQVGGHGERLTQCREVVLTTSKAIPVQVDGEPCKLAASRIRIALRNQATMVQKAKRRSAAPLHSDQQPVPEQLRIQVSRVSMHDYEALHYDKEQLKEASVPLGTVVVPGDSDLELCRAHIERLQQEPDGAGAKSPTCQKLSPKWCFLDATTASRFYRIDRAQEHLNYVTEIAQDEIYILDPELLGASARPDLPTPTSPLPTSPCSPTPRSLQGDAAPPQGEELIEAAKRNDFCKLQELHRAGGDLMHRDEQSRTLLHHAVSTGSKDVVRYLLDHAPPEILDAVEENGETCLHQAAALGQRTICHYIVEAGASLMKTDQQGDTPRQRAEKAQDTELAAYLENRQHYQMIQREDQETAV

Row | IC50 [µM] | Compound
1 | 0.115 | CC(C(N)=O)N(c1ccc(OC(F)(F)F)cc1)c1nc(N)c(C(=O)c2ccccc2)s1 (racemic) [Example 24, rac-2-[N-(4-amino-5-benzoyl-thiazol-2-yl)-4-(trifluoromethoxy)anilino]propanamide]
2 | 0.101 | CC(C(N)=O)N(c1ccc(F)cc1)c1nc(N)c(C(=O)c2ccc(F)c(F)c2)s1 (racemic) [Example 25, rac-2-(N-[4-amino-5-(3,4-difluorobenzoyl)thiazol-2-yl]-4-fluoro-anilino)propanamide]
3 | 0.0748 | CC(C(N)=O)N(c1ccc(F)cc1)c1nc(N)c(C(=O)c2ccc(Cl)c(Cl)c2)s1 (racemic) [Example 26, rac-2-(N-[4-amino-5-(3,4-dichlorobenzoyl)thiazol-2-yl]-4-fluoro-anilino)propanamide]
4 | 0.0696 | CC(C(N)=O)N(c1ccc(OC(F)(F)F)cc1)c1nc(N)c(C(=O)c2ccc(F)cc2)s1 (racemic) [Example 27, rac-2-[N-[4-amino-5-(4-fluorobenzoyl)thiazol-2-yl]-4-(trifluoromethoxy)anilino]propanamide]
5 | 0.061 | CC(C(N)=O)N(c1ccc(C(F)(F)F)cc1)c1nc(N)c(C(=O)c2ccccc2)s1 (racemic) [Example 28, rac-2-[N-(4-amino-5-benzoyl-thiazol-2-yl)-4-(trifluoromethyl)anilino]propanamide]
6 | 0.0575 | CC(C(N)=O)N(c1nc(N)c(C(=O)c2ccccc2)s1)c1ccc(Cl)cc1F (racemic) [Example 30, rac-2-(N-(4-amino-5-benzoyl-thiazol-2-yl)-4-chloro-2-fluoro-anilino)propanamide]
7 | 0.0435 | CC(C(N)=O)N(c1ccc(F)cc1)c1nc(N)c(C(=O)c2ccc3c(c2)CCC3)s1 (racemic) [Example 31, rac-2-(N-[4-amino-5-(indane-5-carbonyl)thiazol-2-yl]-4-fluoro-anilino)propanamide]
8 | 0.0387 | CC(C(N)=O)N(c1ccc(F)c(F)c1)c1nc(N)c(C(=O)c2ccccc2)s1 (racemic) [Example 32, rac-2-(N-(4-amino-5-benzoyl-thiazol-2-yl)-3,4-difluoro-anilino)propanamide]
9 | 0.0428 | CC(C(N)=O)N(c1ccc(F)cc1)c1nc(N)c(C(=O)c2ccc(C#N)cc2)s1 (racemic) [Example 33, rac-2-(N-[4-amino-5-(4-cyanobenzoyl)thiazol-2-yl]-4-fluoro-anilino)propanamide]
10 | 0.0344 | CC(C(N)=O)N(c1ccc(Cl)cc1)c1nc(N)c(C(=O)c2ccccc2)s1 (racemic) [Example 34, rac-2-(N-(4-amino-5-benzoyl-thiazol-2-yl)-4-chloro-anilino)propanamide]
11 | 0.0253 | CC(C(N)=O)N(c1ccc(Cl)c(Cl)c1)c1nc(N)c(C(=O)c2ccccc2)s1 (racemic) [Example 35, rac-2-(N-(4-amino-5-benzoyl-thiazol-2-yl)-3,4-dichloro-anilino)propanamide]
12 | 0.0222 | CC(C(N)=O)N(c1ccc(Cl)c(F)c1)c1nc(N)c(C(=O)c2ccccc2)s1 (racemic) [Example 36, rac-2-(N-(4-amino-5-benzoyl-thiazol-2-yl)-4-chloro-3-fluoro-anilino)propanamide]
13 | 0.0198 | CC(C(N)=O)N(c1ccc(Cl)cc1)c1nc(N)c(C(=O)c2ccc(F)cc2)s1 (racemic) [Example 37, rac-2-(N-[4-amino-5-(4-fluorobenzoyl)thiazol-2-yl]-4-chloro-anillno)propanamide]
14 | 0.0193 | CC(C(N)=O)N(c1ccc(F)cc1)c1nc(N)c(C(=O)c2ccc(Cl)cc2)s1 (racemic) [Example 38, rac-2-(N-[4-amino-5-(4-chlorobenzoyl)thiazol-2-yl]-4-fluoro-anilino)propanamide]
15 | 0.019 | CCOC(=O)C(C)(C)Oc1ccc(C(=O)c2sc(N(c3ccc(F)cc3)C(C)C(N)=O)nc2N)cc1 (racemic) [Example 39, Rac-ethyl 2-[4-[4-amino-2-(N-[2-amino-1-methyl-2-oxo-ethyl]-4-fluoro-anilino)thiazole-5-carbonyl]phenoxy]-2-methyl-propanoate]
16 | 0.0154 | CC(C(N)=O)N(c1ccc(F)cc1)c1nc(N)c(C(=O)c2ccc(OC(F)(F)F)cc2)s1 (racemic) [Example 40, rac-2-(N-[4-amino-5-[4-(trifluoromethoxy)benzoyl]thiazol-2-yl]-4-fluoro-anilino)propanamide]
17 | 0.0135 | CC(C(N)=O)N(c1ccc(Cl)cc1)c1nc(N)c(C(=O)c2ccc(Cl)cc2)s1 (racemic) [Example 41, rac-2-(N-[4-amino-5-(4-chlorobenzoyl)thiazol-2-yl]-4-chloro-anilino)propanamide]
18 | 0.0113 | CC(C(N)=O)N(c1ccc(F)cc1)c1nc(N)c(C(=O)c2ccc(C(F)(F)F)cc2)s1 (racemic) [Example 42, rac-2-(N-[4-amino-5-[4-(trifluoromethyl)benzoyl]thiazol-2-yl]-4-fluoro-anilino)propanamide]
19 | 0.0111 | CC(C(N)=O)N(c1ccc(C(F)(F)F)cc1)c1nc(N)c(C(=O)c2ccc(OC(F)F)cc2)s1 (racemic) [Example 43, rac-2-[N-[4-amino-5-[4-(difluoromethoxy)benzoyl]thiazol-2-yl-4-(trifluoromethyl)anilino]propanamide]
20 | 0.338 | CC(Oc1ccc(C(=O)c2sc(N(c3ccccc3)C(C)C(N)=O)nc2N)cc1)C(N)=O (racemic) [Example 45, 2-(N-[4-amino-5-[4-[2-amino-1-methyl-2-oxo-ethoxy]benzoyl]thiazol-2-yl]anilino)propanamide]
21 | 0.00707 | CC(C(N)=O)N(c1nc(N)c(C(=O)c2ccc(OC(F)F)cc2)s1)c1ccc(Cl)cc1F (racemic) [Example 46, rac-2-(N-[4-amino-5-[4-(difluoromethoxy)benzoyl]thiazol-2-yl]-4-chloro-2-fluoro-anilino)propanamide]
22 | 0.00377 | CC(C(N)=O)N(c1ccc(Cl)cc1)c1nc(N)c(C(=O)c2ccc(OC(F)F)cc2)s1 (racemic) [Example 47, rac-2-(N-[4-amino-5-[4-(difluoromethoxy)benzoyl]thiazol-2-yl]-4-chloro-anilino)propanamide]
23 | 0.00372 | CC(C(N)=O)N(c1ccc(Cl)c(F)c1)c1nc(N)c(C(=O)c2ccc(OC(F)F)cc2)s1 (racemic) [Example 48, rac-2-(N-[4-amino-5-[4-(difluoromethoxy)benzoyl]thiazol-2-yl]-4-chloro-3-fluoro-anilino)propanamide]
24 | 0.00276 | CC(C(N)=O)N(c1ccc(F)c(F)c1)c1nc(N)c(C(=O)c2ccc(OC(F)F)cc2)s1 (racemic) [Example 49, rac-2-(N-[4-amino-5-[4-(difluoromethoxy)benzoyl]thiazol-2-yl]-3,4-difluoro-anilino)propanamide]

Row | Compound | IC50 [µM]
25 | CC(C(N)=O)N(c1ccc(F)cc1)c1nc(N)c(C(=O)c2ccc(C(F)(F)F)nc2)s1 (racemic) [Example 29, rac-2-(N-[4-amino-5-[6-(trifluoromethyl)pyridine-3-carbonyl]thiazol-2-yl]-4-fluoro-anilino)propanamide] | 0.0584
26 | CC(C(N)=O)N(c1ccc(F)cc1)c1nc(N)c(C(=O)c2ccc(OC(F)F)cc2)s1 (racemic) [Example 44, rac-2-(N-[4-amino-5-[4-(difluoromethoxy)benzoyl]thiazol-2-yl]-4-fluoro-anilino)propanamide] | 0.00883
